From publication PMC7655540, “Accumulation of Target Gene Mutations Confers Multiple Resistance to ALS, ACCase, and EPSPS Inhibitors in Lolium Species in Chile” (Frontiers in Plant Science, 2020) come the findings set out here.

For assay [1], the target named is T1, ACCase (Lolium perenne, UniProt Z9B5O7SYH2).
T1 construct: native enzyme, young leaf extract, ammonium sulfate fraction, desalted; isoforms not separated
Nature of the assay: ATP-dependent incorporation of […]-bicarbonate into malonyl-CoA. As to conditions: S population; partially purified leaf extract; 5 mM acetyl-CoA, pH 8.3, 34°C; diclofop-acid per methods; read-out: I50. The class given is biochemical.

The target in assay [2] is T1, ACCase. Described as above. The class given is biochemical. As to conditions: R population extract, heterogeneous alleles; 5 mM acetyl-CoA, pH 8.3, 34°C; stated gain; read-out: I50.
The target of assay [3] is T2, ACCase (Lolium multiflorum, UniProt A0AAD8WR50).
T2 construct: gene QYE76_038327; native enzyme, young leaf extract, ammonium sulfate fraction, desalted; isoforms not separated
Described as above. The class given is biochemical. The following applies: S population; partially purified leaf extract; 5 mM acetyl-CoA, pH 8.3, 34°C; diclofop-acid per methods; read-out: I50.

The subject of a further assay is EPSPS. The experiment in a line: phosphate release, EnzCheck phosphate assay, […] nm. The class given is biochemical, Lolium perenne. As to conditions: S population; partially purified leaf extract; pH 7.0; read-out: I50.

Like-named read-outs stand apart in the source and are kept apart here.

T2 sequence (A0AAD8WR50 1-2320): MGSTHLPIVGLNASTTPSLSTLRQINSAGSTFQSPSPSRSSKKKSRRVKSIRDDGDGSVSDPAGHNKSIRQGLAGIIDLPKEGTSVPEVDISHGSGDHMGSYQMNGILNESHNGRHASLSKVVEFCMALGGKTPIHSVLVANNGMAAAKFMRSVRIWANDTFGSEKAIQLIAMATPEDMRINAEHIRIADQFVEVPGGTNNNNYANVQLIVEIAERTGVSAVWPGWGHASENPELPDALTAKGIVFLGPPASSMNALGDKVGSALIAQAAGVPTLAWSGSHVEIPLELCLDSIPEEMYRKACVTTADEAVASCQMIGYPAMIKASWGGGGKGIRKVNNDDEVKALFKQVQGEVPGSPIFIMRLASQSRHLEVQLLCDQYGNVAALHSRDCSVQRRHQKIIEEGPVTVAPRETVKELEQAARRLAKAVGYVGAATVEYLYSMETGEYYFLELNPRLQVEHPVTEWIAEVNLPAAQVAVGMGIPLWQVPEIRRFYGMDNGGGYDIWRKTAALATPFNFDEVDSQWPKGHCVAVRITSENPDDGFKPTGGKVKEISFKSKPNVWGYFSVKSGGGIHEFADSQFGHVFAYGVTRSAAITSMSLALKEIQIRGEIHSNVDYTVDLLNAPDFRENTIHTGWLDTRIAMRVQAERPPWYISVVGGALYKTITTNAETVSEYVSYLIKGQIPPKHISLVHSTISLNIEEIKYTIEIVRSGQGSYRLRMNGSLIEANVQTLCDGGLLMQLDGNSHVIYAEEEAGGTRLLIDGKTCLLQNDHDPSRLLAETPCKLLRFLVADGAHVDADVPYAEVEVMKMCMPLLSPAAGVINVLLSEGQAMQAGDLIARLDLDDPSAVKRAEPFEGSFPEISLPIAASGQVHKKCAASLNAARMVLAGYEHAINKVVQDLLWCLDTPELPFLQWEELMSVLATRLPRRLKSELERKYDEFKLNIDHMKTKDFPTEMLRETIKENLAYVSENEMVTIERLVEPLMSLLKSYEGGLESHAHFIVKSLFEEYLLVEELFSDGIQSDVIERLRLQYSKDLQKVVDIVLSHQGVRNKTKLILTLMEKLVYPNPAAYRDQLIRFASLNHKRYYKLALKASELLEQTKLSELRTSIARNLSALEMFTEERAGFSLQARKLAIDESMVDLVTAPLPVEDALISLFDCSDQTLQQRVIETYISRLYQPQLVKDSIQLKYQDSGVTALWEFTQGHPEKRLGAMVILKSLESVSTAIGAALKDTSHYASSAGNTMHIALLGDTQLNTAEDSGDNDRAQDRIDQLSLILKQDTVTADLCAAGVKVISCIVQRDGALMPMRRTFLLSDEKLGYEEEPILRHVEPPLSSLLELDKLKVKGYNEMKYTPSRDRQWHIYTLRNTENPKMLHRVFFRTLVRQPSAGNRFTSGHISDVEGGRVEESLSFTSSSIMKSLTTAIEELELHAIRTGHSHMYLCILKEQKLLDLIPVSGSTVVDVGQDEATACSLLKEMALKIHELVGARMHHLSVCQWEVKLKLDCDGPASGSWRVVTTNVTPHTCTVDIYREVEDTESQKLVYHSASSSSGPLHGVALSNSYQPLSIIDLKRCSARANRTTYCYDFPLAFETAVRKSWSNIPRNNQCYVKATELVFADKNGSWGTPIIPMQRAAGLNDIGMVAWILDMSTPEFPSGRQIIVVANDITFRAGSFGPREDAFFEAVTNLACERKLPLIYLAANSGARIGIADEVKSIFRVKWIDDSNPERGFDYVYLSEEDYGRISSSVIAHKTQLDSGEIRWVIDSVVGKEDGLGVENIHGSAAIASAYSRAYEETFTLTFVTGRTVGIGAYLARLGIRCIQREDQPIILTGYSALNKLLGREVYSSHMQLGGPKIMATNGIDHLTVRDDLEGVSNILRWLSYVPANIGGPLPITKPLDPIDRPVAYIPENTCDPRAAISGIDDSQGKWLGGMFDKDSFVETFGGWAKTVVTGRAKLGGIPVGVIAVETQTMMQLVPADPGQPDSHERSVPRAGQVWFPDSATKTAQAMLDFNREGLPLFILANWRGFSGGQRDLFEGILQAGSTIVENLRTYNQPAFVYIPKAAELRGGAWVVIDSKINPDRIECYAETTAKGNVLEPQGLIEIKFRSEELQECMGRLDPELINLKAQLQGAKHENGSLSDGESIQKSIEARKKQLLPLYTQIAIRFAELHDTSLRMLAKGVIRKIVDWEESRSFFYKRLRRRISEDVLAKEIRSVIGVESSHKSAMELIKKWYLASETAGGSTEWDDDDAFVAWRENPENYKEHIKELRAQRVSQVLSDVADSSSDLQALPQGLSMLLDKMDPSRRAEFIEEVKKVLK

Take `CC(Oc1ccc(Oc2ccc(Cl)cc2Cl)cc1)C(=O)O` (stereo not shown) [diclofop-acid]: the IC50 at ACCase [1] worked out at 6.2 µM; at ACCase [2], 68.6 µM; at ACCase [3], 4.6 µM.

On to `O=C(O)CNCP(=O)(O)O` [glyphosate], for which, in the assay with EPSPS, the IC50 amounted to 7.8 µM.
